Assay results: patent US11192869B2, “CFTR regulators and methods of use thereof” (THE REGENTS OF THE UNIVERSITY OF CALIFORNIA, priority 2015, dated 2021)
Entries after “also recorded” stand apart in the source; their conditions may differ.

Assays:
human wild-type CFTR = biological target: T1, human wild-type CFTR (Homo sapiens, UniProt P13569); assay: Short-circuit current in FRT cells expressing wild-type human CFTR; format: cell-based; details: short-circuit current, wild-type CFTR
T1 construct: expressed in transfected cells
Experimental: Short-circuit current measurement. Short-circuit current was measured in FRT cells stably expressing wild-type human CFTR cultured on porous filters as described. The basolateral solution contained 130 mM NaCl, 2.7 mM KCl, 1.5 mM KH2PO4, 1 mM CaCl2, 0.5 mM MgCl2, 10 mM glucose, and 10 mM Na-HEPES (pH 7.3, 37° C.). In the apical solution 65 mM NaCl was replaced by Na gluconate, and CaCl2 was increased to 2 mM, and the basolateral membrane was permeabilized with 250 μg/ml amphotericin B. Short-circuit current was measured in freshly harvested adult mouse colon at 37° C. using symmetrical Krebs-bicarbonate buffer.
Short-circuit current. Fischer rat thyroid (FRT) cells stably expressing wild-type human CFTR were cultured on Snapwell inserts (Corning Costar, Corning N.Y., USA) for short-circuit current (Isc) measurements. After 6-9 days in culture, when the transepithelial resistance was >1000 Ω/cm^2, the inserts were mounted in an Ussing chamber system (World Precision Instruments, Sarasota, Fla., USA). The basolateral solution contained 130 mM NaCl, 2.7 mM KCl, 1.5 mM KH2PO4, 1 mM CaCl2, 0.5 mM MgCl2, 10 mM glucose, and 10 mM Na-HEPES (pH 7.3). In the apical bathing solution, 65 mM NaCl was replaced by Na gluconate, and CaCl2 was increased to 2 mM. Both solutions were bubbled with air and maintained at 37° C. The basolateral membrane was permeabilized with 250 μg/ml amphotericin B (26, 27). Hemichambers were connected to a DVC-1000 voltage clamp via Ag/AgCl electrodes and 3 M KCl agar bridges for Isc recording.

cAMP = cAMP GloSensor luminescence assay in FRT cells; format: cell-based, rat; details: 5 μM, 10 min
Experimental: cAMP assay. Intracellular cAMP activity was measured using a GloSensor luminescence assay (Promega Corp., Madison, Wisconson, USA). FRT null cells were stably transfected with the pGloSensor cAMP plasmid and plated onto white 96-well microplates and grown to confluence. Cells were washed three times with PBS and incubated with 5 μM CFTRact-J027 for 10 min in the absence and presence of 100 nM forskolin. cAMP was assayed according to the manufacturer's instructions.
(§1) cAMP and cytotoxicity assays. Intracellular cAMP activity was measured using a GloSensor luminescence assay (Promega Corp., Madison, Wis., USA). FRT cells stably transfected with the pGloSensor cAMP plasmid (Promega Corp.) were cultured in white 96-well microplates (Corning Costar) overnight. Cells were then washed three times with PBS and incubated with 5 μM test compound for 10 min in the absence and presence of 100 nM forskolin.

[1] = test system: mid-jejunal loops of cystic fibrosis mice; assay: In vivo intestinal fluid absorption, closed mid-jejunal loops of CF mice; set-up: species or system mouse; details: 30 min
Experimental: In vivo intestinal secretion and absorption. Mice (wildtype or CF) were given access to 5% dextrose water but not solid food for 24 h before experiments. Mice were anesthetized with isoflurane and body temperature was maintained during surgery at 36-38° C. using a heating pad. A small abdominal incision was made to expose the small intestine, and closed mid-jejunal loops (length 2-3 cm) were isolated by sutures. Loops were injected with 100 μL vehicle alone or […] CFTRact-J027 in vehicle. The abdominal incision was closed with sutures, and mice were allowed to recover from anesthesia. Intestinal loops were removed at 90 min and loop length and weight were measured to quantify fluid secretion. Intestinal absorption was measured in CF mice (to prevent secretion) as described above, except that the loops were removed at 0 or 30 min. Absorption was calculated as 1-(loop weight at 0 min−loop weight at 30 min)/loop weight at 0 min.
In vivo intestinal secretion and absorption. […] Intestinal loops were removed at 90 min and loop length and weight were measured to quantify fluid secretion. Intestinal absorption was measured in CF mice (to prevent secretion) as described above, except that the loops were removed at 0 or 30 min. Absorption was calculated as 1-(loop weight at 0 min−loop weight at 30 min)/loop weight at 0 min.

[2] = In vitro metabolic stability; format: in vitro ADME, mouse
Experimental: In vitro metabolic stability. CFTRact-J027 (5 μM) was incubated for specified times at 37° C. with mouse liver microsomes (1 mg protein/ml; Sigma-Aldrich) in potassium phosphate buffer (100 mM) containing 1 mM NADPH, as described. The mixture was then chilled on ice, and 0.5 ml of ice-cold ethyl acetate was added. Samples were centrifuged for 15 min at 3000 rpm, the supernatant evaporated to dryness, and the residue was dissolved in 100 μL mobile phase (acetonitrile:water, 3:1) for LC/MS and assayed as described above.

FRT cells = assay: Cytotoxicity, Alamar Blue assay; format: cell-based, rat; details: 20 μM
Experimental: Chronic administration and toxicity studies.
as §1

tear secretion = assay: Tear secretion (phenol red thread); format: in vivo, mouse; details: single topical dose, for (at least) four hours
[3] = Ocular toxicity after chronic topical dosing (slit-lamp, lissamine green); format: in vivo; details: chronically treated mice
Experimental: Lissamine green staining. To assess corneal epithelial disruption, 5 μL of lissamine green (LG) dye (1%) was applied to the ocular surface of isofluorane-anesthetized mice. Photographs of the eye were taken using a Nikon Digital camera adapted to an Olympus Zoom Stereo Microscope (Olympus, Center Valley, Pa., USA). Each corneal quadrant was scored on a 3-point scale by one blinded, trained observer, with the extent of staining in each quadrant classified as: 0, no staining; 1, sporadic (involving <25% of the total surface) staining; grade 2, diffuse punctate staining (25-75%); and grade 3, coalesced punctate staining (>75%). The total grade is reported as the sum of scores from all four quadrants, ranging from 0 to 12.

[4] = test system: loperamide-induced mouse model of constipation; assay: Loperamide-induced mouse model of constipation

T1 sequence (P13569 whole entry): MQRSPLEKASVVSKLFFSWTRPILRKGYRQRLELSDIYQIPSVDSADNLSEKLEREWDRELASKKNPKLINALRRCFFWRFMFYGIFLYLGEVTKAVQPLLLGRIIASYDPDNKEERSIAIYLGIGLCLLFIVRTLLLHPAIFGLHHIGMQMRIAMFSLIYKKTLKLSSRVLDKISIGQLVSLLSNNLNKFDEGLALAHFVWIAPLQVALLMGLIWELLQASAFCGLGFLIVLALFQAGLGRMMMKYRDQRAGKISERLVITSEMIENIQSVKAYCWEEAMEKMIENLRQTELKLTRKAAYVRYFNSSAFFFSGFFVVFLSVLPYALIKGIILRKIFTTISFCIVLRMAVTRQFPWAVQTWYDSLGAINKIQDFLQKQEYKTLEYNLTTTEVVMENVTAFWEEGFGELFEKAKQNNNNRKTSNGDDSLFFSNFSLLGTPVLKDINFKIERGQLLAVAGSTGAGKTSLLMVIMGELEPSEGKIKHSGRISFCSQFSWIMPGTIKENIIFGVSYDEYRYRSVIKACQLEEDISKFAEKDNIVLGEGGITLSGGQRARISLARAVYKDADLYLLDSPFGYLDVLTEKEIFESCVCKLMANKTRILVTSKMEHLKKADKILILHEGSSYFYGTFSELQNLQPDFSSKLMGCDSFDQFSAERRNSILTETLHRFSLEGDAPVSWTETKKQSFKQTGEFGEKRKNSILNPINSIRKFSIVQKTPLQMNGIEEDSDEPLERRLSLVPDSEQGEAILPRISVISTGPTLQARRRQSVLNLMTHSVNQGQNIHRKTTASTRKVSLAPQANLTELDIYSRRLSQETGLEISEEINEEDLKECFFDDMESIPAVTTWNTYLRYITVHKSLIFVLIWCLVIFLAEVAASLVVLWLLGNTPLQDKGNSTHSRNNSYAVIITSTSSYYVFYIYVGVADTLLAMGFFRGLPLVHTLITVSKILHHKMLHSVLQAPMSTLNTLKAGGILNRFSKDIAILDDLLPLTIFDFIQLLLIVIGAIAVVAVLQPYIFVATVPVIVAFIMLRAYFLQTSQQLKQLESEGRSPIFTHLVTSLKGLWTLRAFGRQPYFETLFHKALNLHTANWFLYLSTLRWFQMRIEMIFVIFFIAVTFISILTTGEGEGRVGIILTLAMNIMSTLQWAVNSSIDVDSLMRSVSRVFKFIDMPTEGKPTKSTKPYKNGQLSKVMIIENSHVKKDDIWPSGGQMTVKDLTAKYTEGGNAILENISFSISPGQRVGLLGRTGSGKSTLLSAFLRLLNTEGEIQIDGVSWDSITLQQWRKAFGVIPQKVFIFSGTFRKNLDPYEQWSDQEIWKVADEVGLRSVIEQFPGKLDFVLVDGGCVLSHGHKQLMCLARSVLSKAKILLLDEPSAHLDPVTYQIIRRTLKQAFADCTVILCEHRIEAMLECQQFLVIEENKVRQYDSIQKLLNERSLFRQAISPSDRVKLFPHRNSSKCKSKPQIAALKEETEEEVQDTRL

For `Nc1ccc([N+](=O)[O-])cc1-c1nc2ccccc2n(Cc2ccccc2)c1=O` [CFTRact-J027, 3-(2-amino-5-nitrophenyl)-1-benzylquinoxalin-2(1H)-one], the “CFTR activation (in words)” value (human wild-type CFTR) was “fully activated CFTR chloride conductance”, the “cellular cAMP elevation, compound alone” value (cAMP) was “without causing elevation of cytoplasmic cAMP; also recorded: does not elevate cellular cAMP” and the “cAMP when added together with forskolin” value (cAMP; forskolin 100 nM) was “does not further increase cAMP”. The intestinal fluid absorption [1] was “did not affect”, the original compound remaining ([2]; 60 min) was 7% and the “hepatic/microsomal metabolism (in words)” value ([2]; liver microsomes) was “rapid in vitro metabolism; also recorded: rapid hepatic metabolism”. For the same molecule, the elimination half-life ([2]; mouse liver microsomes, NADPH, 5 μM) was ~21 min, the cytotoxicity (FRT cells) was “did not show cytotoxicity” and the “increase of tear fluid secretion” value (tear secretion) was “approximately two-fold”. For the same molecule, the “LG staining, corneal or conjunctival epithelial disruption” value [3] was “no corneal or conjunctival epithelial disruption”, the “ocular toxicity by slit-lamp evaluation” value [3] was “no signs of ocular toxicity” and the “stool weight, pellet number and water content” value ([4]; intraperitoneal 10 mg/kg, loperamide-treated mice, 3 h) was “normalizes stool output and water content”. The “stool output or water content in control mice” value ([4]; intraperitoneal, non-loperamide-treated mice) was “did not affect”, the “effect in cystic fibrosis mice lacking functional CFTR” value ([4]; loperamide model, CF mice) was “without effect” and the “efficacy after chronic administration” value ([4]; oral 10 mg/kg for 7 days, loperamide 1 h after final dose) was “remained effective”. For the same molecule, the “stool output and water content” value ([4]; oral administration (10 mg/kg, 1 h prior to loperamide), 10 mg/kg) was “normalized stool output and water content; also recorded: effective in normalizing stool output and water content”.
